# Data reported in article PMC11245370, “3-Position Biaryl Endochin-like Quinolones with Enhanced Antimalarial Performance” (ACS Infectious Diseases, 2024).
# Experiments:
# [1] = tested on: P. falciparum drug-sensitive D6 strain; assay: SYBR Green I antiplasmodial assay, D6 strain; format: cell-based; details: Plasmodium falciparum, D6, 72 h, read-out: P. falciparum IC50 values, D6
# Procedure: (§1) All of this information is stored in a database with information relating to chemical structure, physical chemical properties, cross resistance patterns, mammalian cell cytotoxicity, enzyme inhibitor profiles, and synthesis details. Pharmacological data and in vivo efficacy data are also stored in the database for molecules of particular interest. […] We synthesized the compound in an initial batch size of about 800 mg as described above. […] Fluorescence readings were captured with a fluorescence plate reader and processed by nonlinear regression analysis using the GraphPad Prism software to provide IC50 values for each determination. Stock solutions were freshly prepared daily in DMSO in glass vials.
# (§2) Laboratory strains of P. falciparum were cultured in human erythrocytes by standard methods. The parasites were grown in culture medium with fresh human erythrocytes maintained at 2% hematocrit at 37 °C in low-oxygen conditions (5% O2, 5% CO2, 90% N2). […] Cultures were maintained at less than 10% parasitemia by transfer of infected cells to fresh erythrocytes and culture medium every 3 or 4 days.
# (§3) SYBR green I assay. In vitro antiplasmodial activity was assessed using a published SYBR Green I fluorescence-based method.[20] The drugs were added to 96-well plates using twofold serial dilutions in complete medium. […] Asynchronous P. falciparum parasites were diluted with uninfected erythrocytes and added to the wells to give a final culture volume of 100 μL at 2% hematocrit and 0.2% parasitemia. […] The parasites were then lysed by adding 100 μL of SYBR green I lysis buffer containing 0.2 μL/ml SYBR green I dye (10,000×) in 20 mM Tris (pH 7.5), 5 mM EDTA, 0.008% (wt/vol) saponin, and 0.08% (v/v) Triton X-100. The plates were incubated at room temperature for an hour in the dark. […] If the IC50 value fell outside of the initially tested range, then the range was adjusted up or down, and the assay was repeated twice.
# [2] = tested on: P. falciparum multidrug-resistant Dd2 strain; assay: microbe, parasite or virus in culture; format: cell-based; details: Plasmodium falciparum, DD2, 72 h, read-out: P. falciparum IC50 values, Dd2
# Procedure: as §1, §2, §3
# [3] = tested on: P. falciparum ELQ-300-resistant D1 clone; assay: microbe, parasite or virus in culture; format: cell-based; details: Plasmodium falciparum, 72 h, read-out: P. falciparum IC50 values, D1
# [4] = HepG2 cytotoxicity / mitochondrial toxicity (TiterGlo ATP, galactose medium); details: human
# Procedure: HepG2 was routinely cultured in DMEM containing 10% fetal calf serum and 100 IU/mL penicillin and 100 μg/mL streptomycin (complete medium). For studies to investigate the potential for mitochondrial toxicity by selected 3-biaryl-ELQs, the medium contained galactose rather than glucose to force the cells to produce ATP through oxidative phosphorylation, which in turn makes them sensitive to mitochondrial toxicants.[36] […] After this period, the culture medium was removed, and the cells were shifted to galactose-containing medium with test drugs at concentrations ranging from 0 to 10 μM. Drug dilutions were prepared from DMSO stocks into galactose-containing medium. […] After incubation, the contents of each well were removed, and 25 μL of TiterGlo II reagent mix containing luciferase, detergent, and luciferin was added to each well along with 25 μL of culture medium. […] At this point, the plates were read on a luminometer (SpectraMax iD3 iD5Multi-Mode Microplate Reader), and the data were processed to yield the percent decrease in ATP production relative to no-drug control values. These values reflect the potential damage caused by mitochondrial toxicants due to reduced intracellular ATP levels caused by interference with the human mitochondrial electron transport chain. Assays were set up in triplicate.
# [5] = tested on: P. falciparum atovaquone-resistant clinical isolate Tm90-C2B; assay: SYBR Green I antiplasmodial assay, Tm90-C2B; format: cell-based; details: Plasmodium falciparum, TM90, 72 h, read-out: P. falciparum IC50 values, Tm90-C2B
# Procedure: as §1, §2, §3
SMILES,IC50 [1] [nM],IC50 [2] [nM],IC50 [3] [nM],IC50 at 24 h ([4]; HepG2 cells) [nM],IC50 [5] [nM],IC50 at 24 h [4] [nM]
"COc1cc2[nH]c(C)c(-c3ccc(-c4ccc(OC(F)(F)F)cc4)cc3)c(=O)c2cc1F [ELQ-650, 6-Fluoro-7-methoxy-2-methyl-3-(4′-(trifluoromethoxy)-[1,1′-biphenyl]-4-yl)quinolin-4(1H)-one]",0.8,1.1,14,> 10000,0.4,–
"COc1cc2[nH]c(C)c(-c3ccc(-c4cccc(S(F)(F)(F)(F)F)c4)cc3)c(=O)c2cc1Cl [ELQ-662, 6-Chloro-7-methoxy-2-methyl-3-(3′-(pentafluorosulfanyl)-[1,1′-biphenyl]-4-yl)quinolin-4(1H)-one]",0.7,1.3,> 250,–,1.4,–
"COc1cc2[nH]c(C)c(-c3ccc(-c4ccc(OC(F)F)cc4)cc3)c(=O)c2cc1Cl [ELQ-600, 6-Chloro-3-(4′-(difluoromethoxy)-[1,1′-biphenyl]-4-yl)-7-methoxy-2-methylquinolin-4(1H)-one]",3.9,13.4,> 250,> 10000,5.9,–
"COc1cc2[nH]c(C)c(-c3ccc(-c4ccc(C#N)cc4)cc3)c(=O)c2cc1Cl [ELQ-602, 4′-(6-Chloro-7-methoxy-2-methyl-4-oxo-1,4-dihydroquinolin-3-yl)-[1,1′-biphenyl]-4-carbonitrile]",4.8,25.2,> 250,–,10.9,–
"C=C(C)[C@H]1Cc2c(ccc3c2O[C@@H]2COc4cc(OC)c(OC)cc4[C@@H]2C3=O)O1 [rotenone, reference compound]",–,–,–,–,–,< 1000
"COc1cc2[nH]c(C)c(-c3ccc(-c4ccc(C(C)(C)C)cc4)cc3)c(=O)c2cc1Cl [ELQ-651, 3-(4′-(tert-Butyl)-[1,1′-biphenyl]-4-yl)-6-chloro-7-methoxy-2-methylquinolin-4(1H)-one]",1.1,1.4,> 250,–,0.49,–
"COc1cc2[nH]c(C)c(-c3ccc(-c4ccc(C(F)(F)F)cc4)cc3)c(=O)c2cc1Cl [ELQ-647, 6-Chloro-7-methoxy-2-methyl-3-(4′-(trifluoromethyl)-[1,1′-biphenyl]-4-yl)quinolin-4(1H)-one]",3.5,7.8,> 250,> 10000,3.5,–
"Cc1[nH]c2cc(F)cc(F)c2c(=O)c1-c1ccc(-c2ccc(OC(F)(F)F)cc2)cc1 [ELQ-601, 5,7-Difluoro-2-methyl-3-(4′-(trifluoromethoxy)-[1,1′-biphenyl]-4-yl)quinolin-4(1H)-one]",5.9,14.3,9.3,–,24.5,–
"COc1cc2[nH]c(C)c(-c3ccc(-c4ccc(S(F)(F)(F)(F)F)cc4)cc3)c(=O)c2cc1Cl [ELQ-663, 6-Chloro-7-methoxy-2-methyl-3-(4′-(pentafluorosulfanyl)-[1,1′-biphenyl]-4-yl)quinolin-4(1H)-one]",1.6,3.2,> 250,–,3.8,–
"COc1cc2[nH]c(C)c(-c3ccc(-c4ccc(C)cc4)cc3)c(=O)c2cc1Cl [ELQ-603, 6-Chloro-7-methoxy-2-methyl-3-(4′-methyl-[1,1′-biphenyl]-4-yl)quinolin-4(1H)-one]",1,3.8,> 250,–,1.5,–
"COc1cc2[nH]c(C)c(-c3ccc(-c4cccc(OC(F)(F)F)c4)cc3)c(=O)c2cc1Cl [ELQ-604, 6-Chloro-7-methoxy-2-methyl-3-(3′-(trifluoromethoxy)-[1,1′-biphenyl]-4-yl)quinolin-4(1H)-one]",0.6,0.5,> 250,> 10000,0.5,–
"COc1cc2[nH]c(C)c(-c3ccc(-c4ccc(Cl)cc4)cc3)c(=O)c2cc1Cl [ELQ-637, 6-Chloro-3-(4′-chloro-[1,1′-biphenyl]-4-yl)-7-methoxy-2-methylquinolin-4(1H)-one]",3.4,7.1,> 250,> 10000,3,–
Cc1[nH]c2c(c(=O)c1-c1ccc(-c3ccc(OC(F)(F)F)cc3)cc1)CCCC2 [ELQ-660],14.8,12.8,22.2,–,7.9,–
"Cc1[nH]c2ccccc2c(=O)c1-c1ccc(-c2ccc(OC(F)(F)F)cc2)cc1 [ELQ-649, 2-Methyl-3-(4′-(trifluoromethoxy)-[1,1′-biphenyl]-4-yl)quinolin-4(1H)-one]",7.9,8.3,15.8,–,6,–
"Cc1[nH]c2cc(F)cc(F)c2c(=O)c1-c1ccc(Oc2ccc(OC(F)(F)F)cc2)cc1 [ELQ-400, reference compound]",0.19,0.44,0.73,–,19.3,10000
"COc1cc2[nH]c(C)c(-c3ccc(-c4ccc(C(F)F)cc4)cc3)c(=O)c2cc1Cl [ELQ-659, 6-Chloro-3-(4′-(difluoromethyl)-[1,1′-biphenyl]-4-yl)-7-methoxy-2-methylquinolin-4(1H)-one]",1.8,1.8,> 250,> 10000,0.57,–
"COc1cc2[nH]c(C)c(-c3ccc(-c4cccc(C(F)(F)F)c4)cc3)c(=O)c2cc1Cl [ELQ-646, 6-Chloro-7-methoxy-2-methyl-3-(3′-(trifluoromethyl)-[1,1′-biphenyl]-4-yl)quinolin-4(1H)-one]",1.1,2.7,> 250,> 10000,1,–
"COc1cc2[nH]c(C)c(-c3ccc(-c4ccc(Oc5ccc(OC(F)(F)F)cc5)cc4)cc3)c(=O)c2cc1Cl [ELQ-653, 6-Chloro-7-methoxy-2-methyl-3-(4′-(4-(trifluoromethoxy)phenoxy)-[1,1′-biphenyl]-4-yl)quinolin-4(1H)-one]",1.5,1.4,> 250,–,0.88,–
"COc1ccc(-c2ccc(-c3c(C)[nH]c4cc(OC)c(Cl)cc4c3=O)cc2)cc1 [ELQ-645, 6-Chloro-7-methoxy-3-(4′-methoxy-[1,1′-biphenyl]-4-yl)-2-methylquinolin-4(1H)-one]",5,10.2,> 250,–,6,–
